The source of these data is US7932389B2, “Octahydropyrrolo[2,3C]pyridine derivatives and pharmaceutical use thereof” (Merck Serono S.A., priority 2004, dated 2011).

The subject of test [1] is IL-2-induced peritoneal recruitment of lymphocytes. Put plainly: IL-2-induced peritoneal recruitment of lymphocytes. In kind it is in vivo, C3H/HEN mice. Conditions: subcutaneous, 15 min prior to IL-2, cells collected 24 h after IL-2, mice. The method, then:
Administration of IL-2 intraperitoneally causes migration of lymphocytes into the intraperitoneal cavity. This is a model for the cellular migration that occurs during inflammation.
C3H/HEN mice (Elevage Janvier, France) were intraperitoneally injected with IL-2 (Serono Pharmaceutical Research Institute, 20 μg/kg, in saline).
Compounds of the invention were suspended in 0.5% carboxymethylcellulose (CMC)/0.25% tween-20 and were administered by s.c. or p.o. route (10 ml/kg) 15 min prior to administration of IL-2.
Twenty-four hours after administration of IL-2, peritoneal white blood cells were collected by 3 successive lavages of the peritoneal cavity with 5 ml phosphate buffered saline (PBS)-1 mM EDTA (+4° C.). The suspension was centrifuged (1700 g×10 min at +4° C.). The resulting pellet was suspended in 1 ml PBS-1 mM EDTA.
Lymphocytes were identified and counted using a Beckman/Coulter counter.
The animals were divided into 6 groups (6 mice each group):
Group 1: (baseline) received 0.5% CMC/0.25% tween-20 (vehicle of compound of the invention) and saline (vehicle of IL-2);
Group 2: (control IL-2) received 0.5% CMC/0.25% tween-20 and injection of IL-2;
Group 3: Experimental group (Compound of the invention Dose 1) received a compound of the invention and injection of IL-2; […]
Inhibition of lymphocyte recruitment was calculated as follows: […]

Test [2] has as its target Recombinant human 92 kDa gelatinase (MMP-9) (Homo sapiens, UniProt P14780). Put plainly: MMP-9 enzyme inhibition assay, coumarin-labeled peptide substrate McaPLGLDpaAR. Type of test: biochemical. The method, then: (§1) Compounds of the invention were tested to assess their activities as inhibitors of MMP-1, MMP-2, MMP-9, MMP-14 and MMP-12.
Compounds of the invention were tested for inhibitory activity against 92 kDa gelatinase (MMP-9) in an assay using a coumarin-labeled peptide substrate, (7-methoxycoumarin-4-yl)acetyl-Pro-Leu-Gly-Leu-(3-[2,4-dinitrophenyl]-L-2,3diaminopropionyl)-Ala-Arg-NH2 (McaPLGLDpaAR) (Knight et al, FEBS Lett. 1992; 263-266).
(§2) Stock solutions were made up as follows: Assay Butter: 100 mM Tris-HCl pH 7.6 containing 100 mM NaCl, 10 mM CaCl2, and 0.05% Brij 35.
(§3) Substrate: 0.4 mM McaPLGLDpaAR (from Bachem) (0.437 mg/ml) stock solution in 100% DMSO (stored at −20° C.). Dilute to 8 μM in assay butter.
Enzyme: Recombinant human 92 kDa gelatinase (MMP-9; APMA (4-aminophenyl mercuric acetate)-activated if necessary) appropriately diluted in assay butter.
(§4) Test Compounds were prepared initially as 10 mM compound solution in 100% DMSO, diluted to 1 mM in 100% DMSO, then serially diluted 3-fold in 100% DMSO across columns 1-10 of a 96-well microtitre plate Assay concentration range, 100 μM (column 1) to 5.1 nM (column 10).
(§5) The assay was performed in a total volume of 100 μL per well in 96-well microtitre plates. Activated enzyme (20 μL) was added to the wells followed by 20 μL of assay butter. Appropriate concentrations of test compounds dissolved in 10 μL of DMSO were then added followed by 50 μL of McaPLGLDpaAR (8 μM, prepared by dilution of DMSO stock in assay butter). For each as say ten concentrations of test compound were examined in duplicate. Control wells lack either enzyme or test compound. The reactions were incubated at 37° C. for 2 hours. The fluorescence at 405 nm was measured immediately with an SLT Fluostar fluorometer (SLT Labinstruments GmbH, Grödig, Austria) using 320 nm excitation, without stopping the reaction.
(§6) The effect of the test compound was determined from the dose response curve generated by the 10 duplicate concentrations of inhibitor. The IC50 (the concentration of compound required to give a 50% decrease in enzyme activity) was obtained by fitting data to the equation, Y=a+((b−a)/(1+(c/X)^d)). (Y=inhibition achieved for a particular dose; X=the dose in nM; a=minimum y or zero % inhibition; b=maximum y or 100% inhibition; c=is the IC50; d=is the slope). The result was rounded to one significant figure.

Test [3] has as its target metalloelastase (MMP-12) (Homo sapiens, UniProt P39900). Put plainly: MMP-12 enzyme inhibition assay, coumarin-labelled peptide substrate McaPLGLDpaAR. Type of test: biochemical. As to the method:
as §1, §2, §3, §4, §5, §6
Compounds of the invention were tested for inhibitory activity against metalloelastase (MMP-12) in an assay using a coumarin-labelled peptide substrate, (7-methoxycoumarin-4-yl)acetyl-Pro-Leu-Gly-Leu-(3-[2,4dinitrophenyl]-L-2,3-diaminopropionyl)-Ala-Arg-NH2 (McaPLGLDpaAR) (Knight et al, 1992, above). The protocol for this assay was as described for the MMP-9 assay above.

Test [4] addresses T1, MMP-2 (Homo sapiens, UniProt P08253).
T1 sequence (P08253 110-660): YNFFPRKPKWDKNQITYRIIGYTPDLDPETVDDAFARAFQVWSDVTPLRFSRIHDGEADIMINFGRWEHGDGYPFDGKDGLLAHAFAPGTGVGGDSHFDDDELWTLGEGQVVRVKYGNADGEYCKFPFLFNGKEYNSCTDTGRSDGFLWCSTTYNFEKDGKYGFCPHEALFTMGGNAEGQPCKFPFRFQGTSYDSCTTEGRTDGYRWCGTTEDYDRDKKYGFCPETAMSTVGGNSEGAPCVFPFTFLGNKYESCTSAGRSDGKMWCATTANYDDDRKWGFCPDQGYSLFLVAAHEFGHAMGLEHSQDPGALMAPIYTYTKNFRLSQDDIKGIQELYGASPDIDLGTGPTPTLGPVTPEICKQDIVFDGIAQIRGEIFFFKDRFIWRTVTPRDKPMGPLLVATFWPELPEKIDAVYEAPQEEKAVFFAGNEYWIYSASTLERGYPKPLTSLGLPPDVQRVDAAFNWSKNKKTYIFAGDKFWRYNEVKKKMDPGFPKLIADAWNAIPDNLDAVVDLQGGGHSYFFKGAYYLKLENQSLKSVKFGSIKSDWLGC
Put plainly: MMP-2 enzyme inhibition assay, coumarin-labelled peptide substrate McaPLGLDpaAR. In kind it is biochemical. As to the method: as §1, §2, §3, §4, §5, §6
Compounds of the invention were tested for inhibitory activity against collagenase (MMP-2) in an assay using a coumarin-labelled peptide substrate, (7-methoxycoumarin-4-yl)acetyl-Pro-Leu-Gly-Leu-(3-[2,4-dinitrophenyl]-L-2,3diaminopropionyl)-Ala-Arg-NH2 (Mca PLGLDpaAR) (Knight et al, 1992, above). The protocol for this assay was as described for the MMP-9 assay above.

SMILES strings stand for the structures. pIC50: −log10 of the molar value.

Sequence of Recombinant human 92 kDa gelatinase (MMP-9) (P14780 107-707 limits assumed): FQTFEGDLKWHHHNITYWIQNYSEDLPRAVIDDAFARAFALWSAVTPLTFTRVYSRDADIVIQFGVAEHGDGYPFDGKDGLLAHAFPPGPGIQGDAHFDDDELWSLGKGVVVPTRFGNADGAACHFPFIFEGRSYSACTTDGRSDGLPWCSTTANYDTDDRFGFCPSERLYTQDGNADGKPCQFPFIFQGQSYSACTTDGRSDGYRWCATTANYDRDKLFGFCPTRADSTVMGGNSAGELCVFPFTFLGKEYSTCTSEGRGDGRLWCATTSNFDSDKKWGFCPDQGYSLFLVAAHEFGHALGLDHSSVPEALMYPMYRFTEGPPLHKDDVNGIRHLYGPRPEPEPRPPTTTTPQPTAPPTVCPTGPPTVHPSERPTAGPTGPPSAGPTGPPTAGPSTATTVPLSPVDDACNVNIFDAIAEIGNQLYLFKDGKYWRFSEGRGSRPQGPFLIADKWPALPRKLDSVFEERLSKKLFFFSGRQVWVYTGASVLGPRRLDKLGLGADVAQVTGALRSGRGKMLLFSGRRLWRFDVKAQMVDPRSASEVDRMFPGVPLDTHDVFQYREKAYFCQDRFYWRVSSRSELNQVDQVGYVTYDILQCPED
Sequence of metalloelastase (MMP-12) (P39900 106-470): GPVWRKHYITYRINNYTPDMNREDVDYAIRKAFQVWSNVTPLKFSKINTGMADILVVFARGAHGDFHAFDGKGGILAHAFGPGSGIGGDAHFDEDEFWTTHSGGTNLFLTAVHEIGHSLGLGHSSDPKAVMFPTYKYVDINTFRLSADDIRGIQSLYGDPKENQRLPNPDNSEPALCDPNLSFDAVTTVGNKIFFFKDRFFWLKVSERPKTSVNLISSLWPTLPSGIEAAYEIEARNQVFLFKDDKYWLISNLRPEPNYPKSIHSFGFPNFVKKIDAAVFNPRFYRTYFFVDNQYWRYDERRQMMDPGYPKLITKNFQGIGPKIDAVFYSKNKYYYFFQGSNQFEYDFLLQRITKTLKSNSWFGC

The pIC50 is −log10 of the IC50, conventionally taken in molar units. Turning to `COc1ccc(S(=O)(=O)N2[C@H](C(=O)NO)C[C@@H]3CCN(C(=O)CCc4ccccc4)C[C@@H]32)cc1` (relative stereo) [Example 8, rel-(2S,3aS,7aR)—N-hydroxy-1-[(4-methoxyphenyl)sulfonyl]-6-(3-phenylpropanoyl)octahydro-1H-pyrrolo[2,3-c]pyridine-2-carboxamide], in test [1] (3 mg/kg), the “% inhibition of IL-2-induced peritoneal recruitment of lymphocytes” value is reported as 33%. Further, the pIC50 is 7.39 in test [2], 7.30 in test [3] and 7.30 in test [4].

As for `CS(=O)(=O)N1CC[C@H]2C[C@@H](C(=O)NO)N(S(=O)(=O)c3ccc(Oc4ccncc4)cc3)[C@H]2C1` (relative stereo) [Example 11, rel-(2S,3aS,7aR)—N-hydroxy-6-(methylsulfonyl)-1-{[4-(pyridin-4-yloxy)phenyl]sulfonyl}octahydro-1H-pyrrolo[2,3-c]pyridine-2-carboxamide], in test [1] (10 mg/kg), the “% inhibition of IL-2-induced peritoneal recruitment of lymphocytes” value was 38%. The results for the pIC50 in test [2], in test [3] and in test [4] were 6.06, 7.10 and 6.43, respectively.

Regarding `COc1ccc(S(=O)(=O)N2[C@H](C(=O)NO)C[C@@H]3CCN(C(=O)Nc4ccccc4)C[C@@H]32)cc1` (relative stereo) [Example 16, rel-(2S,3aS,7aR)—N^2-hydroxy-1-[(4-methoxyphenyl)sulfonyl]-N^6-phenyloctahydro-6H-pyrrolo[2,3-c]pyridine-2,6-dicarboxamide], the pIC50 in test [2] is 6.37; in test [3] it was 6.47; in test [4], 6.49.

Consider `COc1ccc(S(=O)(=O)N2[C@H](C(=O)NO)C[C@@H]3CCN(C(=O)OCc4ccccc4)C[C@@H]32)cc1` (relative stereo) [Example 18, benzyl rel-(2S,3aS,7aR)-2-[(hydroxyamino)carbonyl]-1-[(4-methoxyphenyl)sulfonyl]octahydro-6H-pyrrolo[2,3-c]pyridine-6-carboxylate], for which the pIC50 in test [2] was 6.17; in test [3], 6.40; in test [4], 6.31.
